Data as given in ChEMBL document CHEMBL1154953, “3-Aryl-4-(arylhydrazono)-1H-pyrazol-5-ones: Highly ligand efficient and potent inhibitors of GSK3beta” (Bioorg Med Chem Lett, 2010).

Assays:
[1] = molecular target: Glycogen synthase kinase-3 beta (Homo sapiens, UniProt P49841)
Description: Inhibition of GSK3-beta assessed as NADH level after 10 mins by pyruvate kinase/lactate dehydrogenase coupled spectrophotometric assay

[2] = molecular target: Serine/threonine-protein kinase PLK1 (Homo sapiens, UniProt P53350); assay: Inhibition of PLK1
[3] = molecular target: T1, Receptor-type tyrosine-protein kinase FLT3 (Homo sapiens, UniProt P36888); assay: Inhibition of FLT3
T1 sequence (P36888 whole entry): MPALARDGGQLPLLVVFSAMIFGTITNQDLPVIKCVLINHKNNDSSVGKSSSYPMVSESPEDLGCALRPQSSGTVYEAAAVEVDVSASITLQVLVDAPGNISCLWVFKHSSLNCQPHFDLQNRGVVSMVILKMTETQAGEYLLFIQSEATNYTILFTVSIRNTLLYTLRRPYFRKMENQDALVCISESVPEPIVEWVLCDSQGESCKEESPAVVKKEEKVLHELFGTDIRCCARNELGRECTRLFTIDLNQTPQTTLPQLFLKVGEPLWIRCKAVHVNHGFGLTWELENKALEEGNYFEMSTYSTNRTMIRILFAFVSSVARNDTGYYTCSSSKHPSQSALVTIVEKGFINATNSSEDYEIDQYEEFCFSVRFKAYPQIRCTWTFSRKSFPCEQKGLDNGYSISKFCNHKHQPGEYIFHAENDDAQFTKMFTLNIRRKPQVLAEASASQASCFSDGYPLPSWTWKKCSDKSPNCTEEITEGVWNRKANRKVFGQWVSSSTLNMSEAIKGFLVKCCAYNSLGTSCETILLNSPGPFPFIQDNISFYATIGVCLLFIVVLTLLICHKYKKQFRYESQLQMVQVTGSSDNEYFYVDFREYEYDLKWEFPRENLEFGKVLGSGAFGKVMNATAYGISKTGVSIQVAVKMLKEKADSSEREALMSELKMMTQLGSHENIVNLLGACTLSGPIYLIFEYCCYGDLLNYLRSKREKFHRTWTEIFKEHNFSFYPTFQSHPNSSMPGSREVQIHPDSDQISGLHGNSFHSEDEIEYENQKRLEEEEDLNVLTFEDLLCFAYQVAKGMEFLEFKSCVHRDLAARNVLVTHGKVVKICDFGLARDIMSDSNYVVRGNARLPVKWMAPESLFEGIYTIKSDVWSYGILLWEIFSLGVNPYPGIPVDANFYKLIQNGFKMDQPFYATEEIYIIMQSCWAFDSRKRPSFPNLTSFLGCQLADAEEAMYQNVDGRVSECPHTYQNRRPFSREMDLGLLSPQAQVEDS

[4] = molecular target: Proto-oncogene tyrosine-protein kinase Src (Homo sapiens, UniProt P12931); assay: Inhibition of SRC
Proto-oncogene tyrosine-protein kinase Src, sequence (P12931 2-536 limits assumed): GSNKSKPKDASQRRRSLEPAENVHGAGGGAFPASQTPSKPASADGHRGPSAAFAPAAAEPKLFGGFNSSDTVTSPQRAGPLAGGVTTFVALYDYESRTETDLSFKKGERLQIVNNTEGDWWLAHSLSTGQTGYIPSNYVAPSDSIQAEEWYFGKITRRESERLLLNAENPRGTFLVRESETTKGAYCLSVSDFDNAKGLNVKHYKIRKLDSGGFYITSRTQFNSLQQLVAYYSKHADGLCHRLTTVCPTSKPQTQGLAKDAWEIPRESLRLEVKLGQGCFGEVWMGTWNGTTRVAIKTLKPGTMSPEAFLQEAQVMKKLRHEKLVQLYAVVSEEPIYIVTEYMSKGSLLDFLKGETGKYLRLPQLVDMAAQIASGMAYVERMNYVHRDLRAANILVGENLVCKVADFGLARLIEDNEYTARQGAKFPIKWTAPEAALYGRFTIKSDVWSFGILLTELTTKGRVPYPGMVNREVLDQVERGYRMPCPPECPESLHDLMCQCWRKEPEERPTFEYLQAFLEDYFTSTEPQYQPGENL

[5] = molecular target: Mitogen-activated protein kinase 10 (Homo sapiens, UniProt P53779); assay: Inhibition of JNK3
[6] = molecular target: T2, Interleukin-1 receptor-associated kinase 4 (Homo sapiens, UniProt Q9NWZ3); assay: Inhibition of IRAK4
T2 sequence (Q9NWZ3 whole entry): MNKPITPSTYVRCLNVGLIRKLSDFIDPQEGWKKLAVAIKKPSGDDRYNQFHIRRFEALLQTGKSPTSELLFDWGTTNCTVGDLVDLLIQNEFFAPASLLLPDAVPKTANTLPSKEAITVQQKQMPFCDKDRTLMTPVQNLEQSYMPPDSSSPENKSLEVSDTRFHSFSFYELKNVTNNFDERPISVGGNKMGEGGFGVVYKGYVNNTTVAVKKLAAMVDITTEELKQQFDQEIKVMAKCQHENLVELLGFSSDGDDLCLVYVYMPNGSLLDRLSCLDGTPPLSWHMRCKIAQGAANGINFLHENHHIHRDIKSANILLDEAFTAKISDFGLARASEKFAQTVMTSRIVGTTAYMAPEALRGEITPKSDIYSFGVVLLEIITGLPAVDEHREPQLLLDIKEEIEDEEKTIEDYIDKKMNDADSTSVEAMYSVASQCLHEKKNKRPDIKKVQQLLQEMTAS

[7] = molecular target: Tyrosine-protein kinase JAK2 (Homo sapiens, UniProt O60674); assay: Inhibition of JAK2
Tyrosine-protein kinase JAK2, sequence (O60674 whole entry): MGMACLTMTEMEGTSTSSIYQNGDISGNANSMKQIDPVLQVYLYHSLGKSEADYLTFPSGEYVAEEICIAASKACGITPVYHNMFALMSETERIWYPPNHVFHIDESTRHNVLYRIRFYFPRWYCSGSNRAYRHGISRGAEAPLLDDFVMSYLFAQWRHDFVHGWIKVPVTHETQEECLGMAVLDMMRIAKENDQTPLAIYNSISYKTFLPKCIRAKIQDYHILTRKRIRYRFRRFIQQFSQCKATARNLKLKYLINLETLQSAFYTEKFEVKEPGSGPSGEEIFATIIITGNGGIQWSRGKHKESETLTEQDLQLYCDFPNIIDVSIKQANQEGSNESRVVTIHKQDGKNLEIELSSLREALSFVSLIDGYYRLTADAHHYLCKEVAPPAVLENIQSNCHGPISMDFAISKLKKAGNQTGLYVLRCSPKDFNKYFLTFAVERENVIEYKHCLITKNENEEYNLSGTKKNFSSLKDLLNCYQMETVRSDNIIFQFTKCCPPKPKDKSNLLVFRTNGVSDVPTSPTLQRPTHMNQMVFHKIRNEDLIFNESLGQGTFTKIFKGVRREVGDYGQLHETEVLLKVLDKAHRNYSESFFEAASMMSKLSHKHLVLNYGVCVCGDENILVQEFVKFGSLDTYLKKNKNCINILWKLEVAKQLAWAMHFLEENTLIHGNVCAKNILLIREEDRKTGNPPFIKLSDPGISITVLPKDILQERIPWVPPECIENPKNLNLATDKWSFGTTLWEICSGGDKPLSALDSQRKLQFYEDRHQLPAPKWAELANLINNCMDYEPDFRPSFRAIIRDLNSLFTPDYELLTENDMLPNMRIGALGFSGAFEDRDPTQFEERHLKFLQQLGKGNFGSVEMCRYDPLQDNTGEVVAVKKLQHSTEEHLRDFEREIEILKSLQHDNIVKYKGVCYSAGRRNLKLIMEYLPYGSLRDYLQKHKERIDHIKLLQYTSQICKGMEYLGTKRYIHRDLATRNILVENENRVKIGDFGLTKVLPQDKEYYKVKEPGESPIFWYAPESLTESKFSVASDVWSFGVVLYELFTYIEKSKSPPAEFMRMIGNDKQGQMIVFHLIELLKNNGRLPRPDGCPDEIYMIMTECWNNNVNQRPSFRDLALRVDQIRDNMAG

[8] = Inhibition of PKA
[9] = molecular target: Hepatocyte growth factor receptor (Homo sapiens, UniProt P08581)
[10] = molecular target: Cyclin-dependent kinase 2 (Homo sapiens, UniProt P24941)
[11] = molecular target: Vascular endothelial growth factor receptor 2 (Homo sapiens, UniProt P35968); assay: Inhibition of KDR
Vascular endothelial growth factor receptor 2, sequence (P35968 whole entry): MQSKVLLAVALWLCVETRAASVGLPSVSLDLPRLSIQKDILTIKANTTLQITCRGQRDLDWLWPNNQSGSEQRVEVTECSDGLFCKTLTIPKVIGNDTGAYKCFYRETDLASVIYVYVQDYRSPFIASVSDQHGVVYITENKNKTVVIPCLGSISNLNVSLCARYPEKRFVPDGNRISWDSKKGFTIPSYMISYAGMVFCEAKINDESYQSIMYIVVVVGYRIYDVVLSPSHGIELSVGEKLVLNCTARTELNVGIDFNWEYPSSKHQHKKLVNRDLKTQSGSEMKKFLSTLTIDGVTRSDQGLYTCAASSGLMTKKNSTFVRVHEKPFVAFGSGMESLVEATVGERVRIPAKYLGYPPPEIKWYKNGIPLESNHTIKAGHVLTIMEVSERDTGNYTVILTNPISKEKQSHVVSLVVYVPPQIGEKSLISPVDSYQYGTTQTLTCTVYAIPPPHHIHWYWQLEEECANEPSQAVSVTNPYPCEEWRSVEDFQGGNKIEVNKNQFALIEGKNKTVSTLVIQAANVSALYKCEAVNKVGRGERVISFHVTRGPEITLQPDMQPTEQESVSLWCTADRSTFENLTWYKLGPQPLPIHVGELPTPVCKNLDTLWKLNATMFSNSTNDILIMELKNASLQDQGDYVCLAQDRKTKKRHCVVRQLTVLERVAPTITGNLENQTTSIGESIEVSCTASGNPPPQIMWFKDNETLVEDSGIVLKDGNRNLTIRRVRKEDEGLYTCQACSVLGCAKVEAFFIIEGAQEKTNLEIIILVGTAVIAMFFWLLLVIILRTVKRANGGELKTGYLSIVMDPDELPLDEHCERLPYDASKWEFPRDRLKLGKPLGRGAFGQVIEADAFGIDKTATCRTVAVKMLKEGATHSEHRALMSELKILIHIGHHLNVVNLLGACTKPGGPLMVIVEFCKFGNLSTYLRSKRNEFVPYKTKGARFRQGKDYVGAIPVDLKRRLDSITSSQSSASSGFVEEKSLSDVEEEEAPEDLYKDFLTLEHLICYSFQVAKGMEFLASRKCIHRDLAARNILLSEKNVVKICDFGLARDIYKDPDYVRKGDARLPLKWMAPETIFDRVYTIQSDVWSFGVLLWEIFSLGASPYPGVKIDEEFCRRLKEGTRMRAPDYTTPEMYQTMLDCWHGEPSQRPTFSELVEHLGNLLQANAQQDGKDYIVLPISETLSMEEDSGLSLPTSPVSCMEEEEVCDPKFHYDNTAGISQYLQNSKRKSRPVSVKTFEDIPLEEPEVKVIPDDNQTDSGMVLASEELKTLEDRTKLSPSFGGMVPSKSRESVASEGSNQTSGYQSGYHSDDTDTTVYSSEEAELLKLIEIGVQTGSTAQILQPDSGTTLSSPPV

[12] = molecular target: Rho-associated protein kinase 1 (Homo sapiens, UniProt Q13464); assay: Inhibition of ROCK1
Rho-associated protein kinase 1, sequence (Q13464 whole entry, canonical isoform): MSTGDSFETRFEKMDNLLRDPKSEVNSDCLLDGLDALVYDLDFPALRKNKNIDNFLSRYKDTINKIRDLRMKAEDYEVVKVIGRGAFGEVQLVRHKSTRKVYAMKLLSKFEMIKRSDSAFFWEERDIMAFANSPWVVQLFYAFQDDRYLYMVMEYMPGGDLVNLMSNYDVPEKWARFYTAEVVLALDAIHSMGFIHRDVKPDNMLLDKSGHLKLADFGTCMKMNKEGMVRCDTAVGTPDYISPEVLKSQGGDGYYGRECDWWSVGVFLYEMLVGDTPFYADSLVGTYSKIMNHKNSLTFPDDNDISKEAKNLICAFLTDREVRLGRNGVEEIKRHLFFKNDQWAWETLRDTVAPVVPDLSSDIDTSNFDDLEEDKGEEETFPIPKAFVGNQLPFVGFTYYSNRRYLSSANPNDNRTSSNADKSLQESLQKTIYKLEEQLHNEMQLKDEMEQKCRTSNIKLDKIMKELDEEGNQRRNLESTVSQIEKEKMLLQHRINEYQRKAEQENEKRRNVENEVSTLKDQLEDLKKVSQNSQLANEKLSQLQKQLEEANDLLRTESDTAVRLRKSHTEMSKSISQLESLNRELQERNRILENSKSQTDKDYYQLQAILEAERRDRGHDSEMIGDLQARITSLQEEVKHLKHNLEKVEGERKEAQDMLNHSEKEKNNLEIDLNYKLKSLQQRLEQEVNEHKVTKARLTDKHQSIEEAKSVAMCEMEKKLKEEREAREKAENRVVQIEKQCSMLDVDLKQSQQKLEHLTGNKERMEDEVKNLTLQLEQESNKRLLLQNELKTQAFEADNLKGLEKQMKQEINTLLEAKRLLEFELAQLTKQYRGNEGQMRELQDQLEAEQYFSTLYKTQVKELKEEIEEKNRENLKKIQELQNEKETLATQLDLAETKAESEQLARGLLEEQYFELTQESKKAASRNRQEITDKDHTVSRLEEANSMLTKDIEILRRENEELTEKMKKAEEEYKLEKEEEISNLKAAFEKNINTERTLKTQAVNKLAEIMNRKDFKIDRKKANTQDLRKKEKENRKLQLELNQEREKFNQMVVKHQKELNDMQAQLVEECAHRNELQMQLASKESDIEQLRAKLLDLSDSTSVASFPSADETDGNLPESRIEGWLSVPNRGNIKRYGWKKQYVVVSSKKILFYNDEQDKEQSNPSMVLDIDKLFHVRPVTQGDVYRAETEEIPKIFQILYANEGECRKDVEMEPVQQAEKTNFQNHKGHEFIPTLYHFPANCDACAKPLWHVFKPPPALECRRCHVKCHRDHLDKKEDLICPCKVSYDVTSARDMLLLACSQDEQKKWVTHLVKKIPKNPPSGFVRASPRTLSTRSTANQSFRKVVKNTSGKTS

[13] = molecular target: Phosphatidylinositol 4,5-bisphosphate 3-kinase catalytic subunit gamma isoform (Homo sapiens, UniProt P48736); assay: Inhibition of PI3Kgamma
[14] = molecular target: Tyrosine-protein kinase SYK (Homo sapiens, UniProt P43405)

Serine/threonine-protein kinase PLK1, sequence (P53350 whole entry): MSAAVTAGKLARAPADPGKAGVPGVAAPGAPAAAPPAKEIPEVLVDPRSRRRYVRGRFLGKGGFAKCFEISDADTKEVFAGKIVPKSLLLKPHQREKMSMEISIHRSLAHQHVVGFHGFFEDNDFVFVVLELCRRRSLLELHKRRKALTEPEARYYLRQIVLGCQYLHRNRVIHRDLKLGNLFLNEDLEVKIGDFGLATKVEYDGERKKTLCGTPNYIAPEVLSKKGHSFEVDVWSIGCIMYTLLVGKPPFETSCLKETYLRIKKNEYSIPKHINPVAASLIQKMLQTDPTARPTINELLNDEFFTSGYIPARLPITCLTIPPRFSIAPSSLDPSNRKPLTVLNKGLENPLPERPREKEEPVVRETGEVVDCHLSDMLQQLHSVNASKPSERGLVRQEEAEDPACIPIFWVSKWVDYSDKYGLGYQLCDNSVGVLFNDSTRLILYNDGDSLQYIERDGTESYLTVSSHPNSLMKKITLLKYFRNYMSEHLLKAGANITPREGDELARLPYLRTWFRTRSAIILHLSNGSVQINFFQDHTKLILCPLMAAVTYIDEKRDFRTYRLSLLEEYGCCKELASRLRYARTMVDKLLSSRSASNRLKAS

| SMILES | Ki [1] [µM] | also measured |
| --- | --- | --- |
| COc1ccncc1C1=NNC(=O)/C1=N\Nc1ccc(N2CCOCC2)cc1 | 0.05 |  |
| CCN(CC)c1ccc(N/N=C2\C(=O)NN=C2c2ccc(OC)cc2)cc1 | 0.016 |  |
| COc1ccc(N/N=C2\C(=O)NN=C2c2ccc(OC)cc2)cc1 | 0.002 |  |
| O=C1NN=C(c2ccccc2)/C1=N/Nc1ccccc1Cl | 0.72 |  |
| O=C1NN=C(c2ccccc2)/C1=N/Nc1ccccc1 | 0.099 |  |
| COc1ccc(N/N=C2\C(=O)NN=C2c2cc(OC)c(OC)c(OC)c2)cc1 | 0.009 |  |
| O=C1NN=C(c2cccnc2)/C1=N/Nc1ccccc1Cl | 0.2 |  |
| COc1cccc(N/N=C2\C(=O)NN=C2c2ccccc2)c1 | 0.035 |  |
| O=C1NN=C(c2ccncc2)/C1=N/Nc1ccccc1Cl | 0.25 |  |
| COc1ccc(C2=NNC(=O)/C2=N\Nc2ccc(N3CCOCC3)cc2)cc1 | 0.008 |  |
| COc1ccc(C2=NNC(=O)/C2=N\Nc2ccncc2)cc1 | 0.014 |  |
| COc1ccc(C2=NNC(=O)/C2=N\Nc2ccc(N3CCOCC3)cc2)cc1OC | 0.003 |  |
| COc1ccncc1C1=NNC(=O)/C1=N\Nc1ccc(C(=O)O)cc1 | 0.0077 |  |
| COc1ccc(N/N=C2\C(=O)NN=C2c2ccccn2)cc1 | 0.64 |  |
| COc1cccc(N/N=C2\C(=O)NN=C2c2cccc(OC)c2)c1 | 0.005 |  |
| O=C1NN=C(c2ccccc2)/C1=N/Nc1cccc(Cl)c1 | 0.12 |  |
| COc1ccccc1N/N=C1\C(=O)NN=C1c1ccccc1 | > 4 |  |
| COc1cccc(C2=NNC(=O)/C2=N\Nc2ccc(C#N)cc2)c1 | 0.004 |  |
| COc1ccc(C2=NNC(=O)/C2=N\Nc2ccccc2Cl)cc1OC | 0.044 |  |
| COc1ccc(C2=NNC(=O)/C2=N\Nc2cccc(Cl)c2)cc1 | 0.0019 |  |
| O=C1NN=C/C1=N/Nc1ccccc1Cl | 1.49 |  |

| SMILES | Ki [1] [µM] | also measured |
| --- | --- | --- |
| CCN(CC)c1ccc(N/N=C2\C(=O)NN=C2c2ccc(OC)c(OC)c2)cc1 | 0.002 |  |
| COc1cccc(C2=NNC(=O)/C2=N\Nc2ccc(C(=O)O)cc2)c1 | 0.0065 |  |
| COc1ccc(C2=NNC(=O)/C2=N\Nc2ccncc2)cc1OC | < 0.0035 |  |
| COc1ccc(C2=NNC(=O)/C2=N\Nc2cccnc2)cc1 | 0.002 | Ki [2]: > 4 µM; Ki [3]: 0.13 µM; Ki [4]: > 4 µM; Ki [5]: > 4 µM; Ki [6]: 1.5 µM; Ki [7]: > 4 µM; Ki [8]: > 4 µM; Ki [9]: > 4 µM; Ki [10]: 0.062 µM; Ki [11]: 3.4 µM; Ki [12]: > 4 µM |
| COc1ccc(C2=NNC(=O)/C2=N\Nc2cccc(OC)c2)cc1 | 0.0008 | Ki [2]: > 4 µM; Ki [3]: 0.066 µM; Ki [4]: > 4 µM; Ki [5]: > 4 µM; Ki [7]: > 1.6 µM; Ki [8]: > 4 µM; Ki [9]: > 4 µM; Ki [10]: 0.095 µM; Ki [11]: 1.8 µM; Ki [12]: > 4 µM |
| COc1ccc(N/N=C2\C(=O)NN=C2c2cccc(OC)c2)cc1 | 0.018 |  |
| COc1cccc(C2=NNC(=O)/C2=N\Nc2cccc(Cl)c2)c1 | 0.008 |  |
| O=C1NN=C(c2ccccc2)/C1=N/Nc1ccc(Cl)cc1 | 0.023 |  |
| COc1ccc(C2=NNC(=O)/C2=N\Nc2ccc(C#N)cc2)cc1OC | < 0.002 |  |
| COc1ccc(N/N=C2\C(=O)NN=C2c2cccnc2)cc1 | 0.02 |  |
| COc1ccncc1C1=NNC(=O)/C1=N\Nc1cccnc1 | 0.023 |  |
| COc1ccc(C2=NNC(=O)/C2=N/Nc2ccc(Cl)cc2)cc1OC | < 0.002 |  |
| CC(C)C1=NNC(=O)/C1=N\Nc1ccccc1Cl | > 3.7 |  |
| COc1cccc(C2=NNC(=O)/C2=N\Nc2ccccc2)c1 | 0.039 |  |
| COc1cccc(N/N=C2\C(=O)NN=C2c2cnccc2OC)c1 | 0.0037 |  |
| COc1ccc(N/N=C2\C(=O)NN=C2c2ccncc2)cc1 | 0.03 |  |
| COc1ccc(C2=NNC(=O)/C2=N\Nc2ccc(C#N)cc2)cc1 | < 0.002 |  |
| COc1cccc(C2=NNC(=O)/C2=N\Nc2ccncc2)c1 | 0.023 |  |
| COc1ccc(C2=NNC(=O)/C2=N\Nc2ccc(Cl)cc2)cc1 | 0.002 |  |
| CC1=NNC(=O)/C1=N\Nc1ccccc1Cl | 0.46 |  |
| COc1ccc(C2=NNC(=O)/C2=N\Nc2cccnc2)cc1OC | < 0.0035 |  |

| SMILES | Ki [1] [µM] | also measured |
| --- | --- | --- |
| COc1cccc(N/N=C2\C(=O)NN=C2c2ccc(OC)c(OC)c2)c1 | 0.0004 |  |
| O=C1NN=C(c2ccccn2)/C1=N/Nc1ccccc1Cl | 0.65 |  |
| COc1ccc(C2=NNC(=O)/C2=N\Nc2ccc(N(C)C)cc2)cc1OC | 0.087 |  |
| COc1ccncc1C1=NNC(=O)/C1=N\Nc1ccc(Cl)cc1 | 0.003 |  |
| COc1cccc(C2=NNC(=O)/C2=N\Nc2cccnc2)c1 | 0.03 |  |
| COc1ccncc1C1=NNC(=O)/C1=N\Nc1ccncc1 | 0.016 |  |
| COc1ccc(N/N=C2\C(=O)NN=C2c2ccc(OC)c(OC)c2)cc1 | < 0.002 |  |
| COc1ccncc1C1=NNC(=O)/C1=N\Nc1ccc(C#N)cc1 | 0.0083 |  |
| COc1cccc(C2=NNC(=O)/C2=N\Nc2ccccn2)c1 | 0.008 |  |
| COc1ccc(N/N=C2\C(=O)NN=C2c2cnccc2OC)cc1 | 0.002 |  |
| COc1cccc(C2=NNC(=O)/C2=N\Nc2ccc(N3CCOCC3)cc2)c1 | 0.059 |  |
| COc1ccncc1C1=NNC(=O)/C1=N\Nc1ccccc1 | 0.0045 | Ki [13]: 0.54 µM; Ki [2]: > 4 µM; Ki [3]: 0.29 µM; Ki [4]: > 4 µM; Ki [14]: 1.8 µM; Ki [5]: 2.5 µM; Ki [6]: 1.1 µM; Ki [7]: 3.5 µM; Ki [8]: > 4 µM; Ki [11]: 1 µM; Ki [12]: > 4 µM |
| COc1ccc(C2=NNC(=O)/C2=N\Nc2ccccc2)cc1OC | < 0.0035 |  |
| COc1ccccc1N/N=C1\C(=O)NN=C1c1cnccc1OC | 0.27 |  |
| COc1cccc(C2=NNC(=O)/C2=N\Nc2ccc(Cl)cc2)c1 | 0.009 |  |
| COc1ccc(C2=NNC(=O)/C2=N\Nc2ccc(N(C)C)cc2)cc1 | 0.11 |  |
| COc1cccc(C2=NNC(=O)/C2=N\Nc2ccccc2Cl)c1 | 0.85 |  |
| COc1ccc(C2=NNC(=O)/C2=N\Nc2cccc(Cl)c2)cc1OC | 0.0004 |  |
| COc1cccc(C2=NNC(=O)/C2=N\Nc2ccc(N(C)C)cc2)c1 | 0.009 |  |
